Test results as given in patent US4762850A, “Dopamine-beta-hydroxylase inhibitors” (SmithKline Beckman Corporation, priority 1987, dated 1988).
Where a name gives a salt, the structure may show the parent alone. Blank lines part the entries; values can stand above or below the compound they belong to.

Tests used:
[1] = target: T1, dopamine-β-hydroxylase (DBH) (Bos taurus, UniProt P15101); details: cited from earlier work; for DBH inhibition (in words): literature reports
T1 sequence (P15101 1-610): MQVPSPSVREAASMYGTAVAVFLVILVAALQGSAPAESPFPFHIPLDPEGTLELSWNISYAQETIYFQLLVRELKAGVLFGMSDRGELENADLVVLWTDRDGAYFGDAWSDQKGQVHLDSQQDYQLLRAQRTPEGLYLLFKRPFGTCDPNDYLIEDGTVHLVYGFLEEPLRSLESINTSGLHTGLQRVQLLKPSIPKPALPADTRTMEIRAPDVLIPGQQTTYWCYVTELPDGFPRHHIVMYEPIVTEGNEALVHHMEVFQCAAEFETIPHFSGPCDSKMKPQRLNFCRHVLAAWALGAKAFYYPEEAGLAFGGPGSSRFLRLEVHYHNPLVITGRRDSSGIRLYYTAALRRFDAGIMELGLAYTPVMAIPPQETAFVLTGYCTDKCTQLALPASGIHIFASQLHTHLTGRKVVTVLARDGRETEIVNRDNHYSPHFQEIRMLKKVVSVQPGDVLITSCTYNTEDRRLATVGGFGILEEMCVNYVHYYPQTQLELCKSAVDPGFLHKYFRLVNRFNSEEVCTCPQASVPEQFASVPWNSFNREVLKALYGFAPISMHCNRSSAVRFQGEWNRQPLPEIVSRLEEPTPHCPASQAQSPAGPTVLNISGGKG

[2] = Teresawa et al. and references cited therein; cited from earlier work
[3] = target: T1, dopamine-β-hydroxylase (DBH); experiment: in vitro DBH inhibition: conversion of tyramine to octopamine (standard procedure of Pisano et al.); assay type: biochemical; details: absorbance at 330 nm, read-out: DBH IC50 (molar concentration of compound at which DBH activity was halved)
Experimental: Listed in Table I are the compounds of the invention that were tested for in vitro DBH inhibition by a standard procedure for assaying conversion of tyramine to octopamine in the presence of DBH. J. J. Pisano, et al., Biochim. Biophys. Acta, 43, 566-568 (1960). Octopamine was assayed following sodium periodate oxidation to p-hydroxybenzaldehyde by measuring spectrophotometric absorbance at 330 nm. In Table I, inhibition is given in molar concentration of compound at which DBH activity was halved (IC50).

[4] = mean arterial blood pressure in spontaneously hypertensive rats; assay type: in vivo; details: 50 mg/kg intraperitoneally
Experimental: Further, spontaneously hypertensive rats were treated with a suspension or solution of N-(2-aminoethyl)-1-(3,5-difluorobenzyl)-2-mercaptoimidazole-5-carboxamide,formate at a dose of 50 mg/kg intraperitoneally, and mean arterial blood pressure was monitored for 260 minutes using indwelling cannulae in the tail arteries.

[5] = Ehrreich et al.; cited from earlier work

Structure (SMILES): O=C(O)c1ccc(CCC(Br)CBr)cn1 (stereo not drawn) [5-(3,4-dibromobutyl)picolinic acid]
DBH inhibition (in words) [1]: DBH inhibitors

Structure (SMILES): CCCCc1ccc(C(=O)O)nc1 [Fusaric acid]
toxicity [2]: hepatotoxic

Structure (SMILES): CN(C)C(=S)SCc1ccc(C(=O)O)nc1 [5-(dimethyldithiocarbamoylmethyl)picolinic acid]
DBH inhibition (in words) [1]: DBH inhibitors

Structure (SMILES): NOCc1ccccc1 [Benzyloxyamine, benzyloxyamine]
mode of DBH inhibition [1]: competitive inhibitors

IC50 [3]: 100 µM
Structure (SMILES): O=C(O)c1cnc(S)n1Cc1cc(F)cc(F)c1 [1-(3,5-Difluorobenzyl)-2-mercaptoimidazole-5-carboxylic acid]

IC50 [3]: 0.34 µM
Structure (SMILES): NCCNC(=O)c1cnc(S)n1Cc1cc(F)cc(F)c1 [N-(2-Aminoethyl)-1-(3,5-difluorobenzyl)-2-mercaptoimidazole-5-carboxamide,formate]
mean arterial blood pressure reduction compared to vehicle-treated controls ([4]; spontaneously hypertensive rats): significant blood pressure reductions
blood pressure when monitoring was terminated ([4]; monitored for 260 minutes): blood pressure remained decreased

Structure (SMILES): NNCc1ccccc1 [benzylhydrazine]
mode of DBH inhibition [1]: competitive inhibitors

Structure (SMILES): O=C(O)c1ccc(CCCCCl)cn1 [5-(4-chlorobutyl) picolinic acid]
DBH inhibition (in words) [1]: inhibit DBH

Structure (SMILES): CCCCc1ccc(C(N)=O)nc1 [Bupicomide, 5-(n-butyl)picolinamine]
DBH inhibition (in words) [1]: DBH inhibitor
antihypertensive activity [5]: has antihypertensive activity
